In US20210308084A1, “AGENT FOR IMPROVING MUSCLE QUALITY” (AJINOMOTO CO., INC., priority 2018, published 2021):

Test system: mouse-derived muscle cell line C2C12 (myotube cells)
Experiment: Evaluation of muscle insulin signal (pAkt Ser473/total Akt, Western blotting) in myotubes exposed to palmitic acid (FFA)
Type: cell-based
Details: FIG. 2; for muscle insulin signal lowered by FFA (phosphorylation index, [(pAkt/Total Akt) Insulin+]/[(pAkt/Total Akt) Insulin-]): amino acid 1 mM added simultaneously with 0.5 mM palmitic acid (FFA), 100 nM insulin stimulation; for action on muscle insulin signal compared with positive control NAC: amino acid 1 mM versus N-acetylcysteine (NAC) 5 mM, 0.5 mM FFA
Method: Using mouse C3H skeletal muscle myoblast (C2C12 cell) (DS Pharma Biomedical Co., Ltd.), the evaluation was performed. Induction of differentiation into myotube cells (Myotubes) was performed using cells with myoblast passage number of 12 to 18. Myoblasts were seeded in a 12-well (diameter=3 cm) plate at 0.3×10^5 to 0.5×10^5/well. After confirmation that the cell proliferation state reached 90% confluent, the medium was replaced with DMEM culture medium supplemented with 2(w/v) % horse serum (HS) and 1(w/v) % penicillin-streptomycin-[…](w/v) % HS, 1(w/v) % […](w/v) % Gln/DMEM), and differentiation into myotube cells (Myotubes) was induced. After confirmation of differentiation into myotube cells (Myotubes), a muscle insulin signal evaluation system was constructed, and the action of each of isoleucine, glycine, and cystine was evaluated using the constructed evaluation system. […] After culturing overnight, the cells were preincubated for about 2 hr in DMEM (BSA/FFA free) with an amino acid concentration of 1/5, stimulated by incubation (15 min-20 min) with 100 nM insulin, and the myotube cells were collected (each n=3). From the collected cells, proteins were extracted with RIPA (Radio-Immunoprecipitation Assay) buffer (Cell Signaling Technologies Inc.), adjusted to a final protein concentration of 0.5 mg/mL, and used as samples. The expression levels of phosphorylated Akt (pAkt) (Ser473) and [NT] in the above-mentioned sample were quantified by the Western blotting (WB) method using anti-phosphorylated Akt (pAkt) (Ser473) antibody (#92715; Cell Signaling Technologies Inc.) and anti-[NT] antibody (#9272S; Cell Signaling Technologies Inc.). The expression level of each protein was quantified using Western blot-chemiluminescent imaging system (Fusion FX) (Vilber-Lourmat Inc.). Each amino acid was added simultaneously with FFA, and the muscle quality-improving effect was examined with the recovery of the muscle insulin signal as an index. The final concentration of each amino acid was adjusted to 1 mM. As a positive control, an antioxidative active substance N-acetylcysteine (NAC) 5 mM was used. From the measurement results of the expression levels of phosphorylated Akt (Ser473) and total Akt, the ratio of phosphorylated Akt and total Akt with insulin stimulation to the ratio of phosphorylated Akt and total Akt without insulin stimulation [(pAkt/Total Akt) Insulin+]/[(pAkt/Total Akt) Insulin-] was determined and shown in FIG. 2 as the phosphorylation index (stimulation index). In FIG. 2, the phosphorylation index is shown as mean±standard error for each sample.

SMILES | muscle insulin signal lowered by FFA (phosphorylation index, [(pAkt/Total Akt) Insulin+]/[(pAkt/Total Akt) Insulin-]) | action on muscle insulin signal compared with positive control NAC
N[C@@H](CSSC[C@H](N)C(=O)O)C(=O)O [cystine, L-cystine] | restore the muscle insulin signal lowered by FFA | equal to or higher than that of NAC
NCC(=O)O [glycine] | restore the muscle insulin signal lowered by FFA | equal to or higher than that of NAC
CC[C@H](C)[C@H](N)C(=O)O [isoleucine, L-isoleucine] | restore the muscle insulin signal lowered by FFA | equal to or higher than that of NAC
